The conditions of one data set: acidic group.
`C/C(=N\O)NO`: the pKa – broadly, the pH at which an ionisable group is half protonated – stood at 10.8.
On the same count and under the same terms, for `O=C(c1ccccc1)c1ccc(O)c(O)c1` the value was 7.74; for `C[N+](C)(C)NC(=O)c1ccc([N+](=O)[O-])cc1`, 3.11.
The molecule `CC(Br)C(=O)O` (centres undefined) came in with a pKa of 2.97.
As to `Cc1nc2nc([O-])[nH]c(=O)c2[nH]1`, the pKa is 9.7.
Same read-out and setting: with `O=C1COCC(=O)C1=O` the figure was 7.62; with `C[C@H]1CC[C@H]2[C@H](C)CC[C@@H](C(=O)O)[NH+]2C1`, 2.
Take `Oc1ccc(O)c2ncccc12`: the pKa came to 9.3.
`Sc1cc[nH+]c2ccccc12`: the pKa was determined as 0.77.
Same read-out and setting: with `CCc1ccc(OC)c(C(=O)NC[C@H]2CCC[NH+]2CC)c1O` the figure was 8.7; with `NC(=O)[C@H](CCC(=O)O)NC=O`, 4.3.
`CO[n+]1ccc(O)cc1` displayed a pKa of 2.57.
As for `CN(C)Cc1cc(C(C)(C)C)ccc1O`, the pKa was 11.5.
Still for that read-out and setting: with `CC(C)CN(CC(C)C)C(=S)S` the figure was 3.4; with `[NH3+][C@@H](CCC(=O)O)C(=O)[O-]`, 4.46.
With `O=S(=O)(Nc1ccc(Cl)cc1)c1ccccc1`, the pKa was found to be 7.91.
Turning to `C=C(SC1CCCCC1)C(=O)O`, the pKa was determined as 3.4.
With `CC(=O)[n+]1ccccc1`, the pKa worked out at 5.32.
In turn, `O=S(O)CCCc1ccccc1` showed a pKa of 2.05.
Still for that read-out and setting: with `Cc1cc(C)nc(NS(=O)(=O)c2ccc(O)cc2)n1` the figure was 7.52.
On the same count and under the same terms, with `COc1cccc(C=O)c1O` the figure was 7.91.
`N#CCc1ccc(C(=O)O)cc1`: the pKa is 4.09.
Consider `Cc1cc(I)ccc1C(=O)O`, for which the pKa worked out at 3.79.
Same read-out and setting: with `OCc1ccc(O)cc1` the figure was 9.82; with `Oc1ccc2cc3ccccc3cc2c1`, 9.92; with `CC[Se](=O)O`, 5.28.
Same read-out and setting: with `CN(CCC[NH+](C)C)C(=O)/C=N/O` the figure was 8.68; with `CC(C)C(=O)CC(=O)C(C)C`, 9.86.
Still for that read-out and setting: with `O=C([O-])CCC(=O)C=C=Cc1ccccc1` the figure was 13.3.
As for `CCCCCCCC[NH2+]CCC(=O)O`, the pKa was 3.56.
Molecule `O=C(O)c1cc[nH+]cc1` showed a pKa of 1.71.
The same measure, in the same setting: for `C=C(C)[C@@H]1CN(C(C)=O)[C@H](C(=O)OC)[C@@H]1CC(=O)O` the value was 4.6.
Regarding `NNC(=O)CS`, the pKa stood at 8.05.
`O=c1oc2cc(O)ccc2cc1-c1nc2ccccc2o1`: the pKa amounted to 6.84.
Still for that read-out and setting: with `O=C(O)CCC(=O)c1ccc(-c2ccccc2)cc1` the figure was 4.46.
`C#CCC(=O)O` returned a pKa of 3.31.
Molecule `CC(=O)c1ccc(Br)cc1` yielded a pKa of 18.
The same measure, in the same setting: for `Cc1ccc(SC2CC(=O)N2)cc1` (centres undefined) the value was 13.4; for `Cn1c[nH+]cc1C[C@H](NC(=O)CC[NH3+])C(=O)O`, 2.64.
In the case of `O=C(O)CC1CCCCC1`, the pKa stood at 4.8.
On the same count and under the same terms, with `O=C(Oc1ccc(Cl)cc1)C1c2ccccc2-c2ccccc21` the figure was 10.3.
Same read-out and setting: for `N#Cc1ccc(O)cc1` the value was 7.89; for `Oc1cc(Br)cc(Br)c1`, 8.01; for `Fc1cccc(NC=S)c1`, 10.9.
Same read-out and setting: with `C[C@@]12CC(=O)N[C@]1(CCC(=O)O)C(=O)NC2=O` the figure was 4.4.
The molecule `Cc1cc(C(C)(C)C)c(O)c(C(C)(C)C)c1` gave a pKa of 12.6.
The same measure, in the same setting: with `C[NH+](C)Cc1cc(C(C)(C)C)cc(C[NH+](C)C)c1O` the figure was 6.3; with `O=[N+]([O-])c1cccc(/C=N/O)c1`, 10.2; with `COc1ccc(/C=C\C(=O)O)cc1`, 4.03.
Still for that read-out and setting: with `NS(=O)(=O)c1cccc(C(=O)O)c1` the figure was 3.61; with `O=C(O)c1cccc[nH+]1`, 1.25; with `O=C(O)[C@@H]1O[C@H](Oc2cccc3[nH+]cccc23)[C@@H](O)[C@H](O)[C@H]1O`, 3.1.
In the case of `COc1ccc(C(=S)Nc2ccc(Br)cc2)cc1`, the pKa came to 10.9.
Consider `Cc1cc(O)nn1-c1ccccc1`, for which the pKa came out at 12.1.
As for `Cc1cc(C)nc(NS(=O)(=O)c2ccc(N)cc2)n1`, the pKa worked out at 7.44.

The same data set, now with this note: basic group.
`Cc1ccc2nc(C)c3c(c2c1)OC(C)C3C` (centres undefined) registered a pKa of 7.65.
`C/C(=N\O)NO`: the pKa worked out at 4.95.
For the molecule `Cc1cc(N)cc(C)c1C(=O)NCCN1CCOCC1`, the pKa came to 5.96.
On the same count and under the same terms, with `CN(C)CCC/N=C(\c1ccccc1)c1ccccc1Cl` the figure was 9; with `c1ncc(Cc2c[nH+]c[nH]2)[nH]1`, 5.69; with `[NH3+]CCC(=O)N[C@@H](Cc1cnc[nH]1)C(=O)[O-]`, 6.74.
Turning to `CCC(C)(C)NC(C)(C)CC`, the pKa came out at 11.6.
Still for that read-out and setting: for `Cc1ccccc1C(=NCCCN(C)C)c1ccccc1C` the value was 8.7; for `COc1cccc(C(=N)c2ccccc2)c1`, 6.59; for `NC(N)=O`, 0.4.
Still for that read-out and setting: with `COc1ccc2nccc(C(O)C3CCCCN3)c2c1` (centres undefined) the figure was 9.3.
The same measure, in the same setting: for `CSC(=N)Nc1ccccc1` the value was 7.14; for `NC(=O)C(N)Cc1c[nH]cn1` (centres undefined), 7.64; for `[O-]c1ccnc[nH+]1`, 1.77.
As to `Oc1ccc(O)c2ncccc12`, the pKa is 4.5.
As to `COc1ccc(S(=O)(=O)NCCN2CCOCC2)c(OC)c1OC`, the pKa amounted to 6.16.
Same read-out and setting: with `COc1ccc2c(c1)CCN2` the figure was 6.1; with `C[C@@H]1CCCC[C@@H]1N`, 10.6.
On the same count and under the same terms, for `CN(C)Cc1cc(C(C)(C)C)ccc1O` the value was 8.55.
`Cc1ccnc([S-])n1` displayed a pKa of 8.
Molecule `COc1cnccc1C=O` yielded a pKa of 4.45.
Take `CC1CCCCN1` (centres undefined): the pKa was 11.
The molecule `COc1ccc2nccc(C(O)C3CCCC[NH2+]3)c2c1` (centres undefined) returned a pKa of 4.34.
Still for that read-out and setting: with `COc1ccccc1N` the figure was 4.51; with `CCn1nc(-c2ccccc2)sc1=N`, 6.1.
Same read-out and setting: with `c1cnc2c(c1)c1c(c3cccnc32)CCCC1` the figure was 5.3; with `[NH3+]C1CCN(Cc2ccccc2)CC1`, 7.05.
Same read-out and setting: with `OC[C@@H]1O[C@H](n2ccc3c2ncn2ccnc32)[C@@H](O)[C@H]1O` the figure was 5.49; with `COC(=O)c1nc2cc(Cl)ccc2[nH]1`, 0.3.
On to `NC(=O)c1c2cccc1COCCOCc1ncc([nH]1)COCCOC2`, for which the pKa is 5.72.
Same read-out and setting: with `CCN1CC(O[Si](C)(C)C)C1` the figure was 8.68.
`Nc1cccc([I+]c2ccccc2)c1` gave a pKa of 1.87.
Same read-out and setting: with `CN1CCNCC1` the figure was 9.6.
`Cc1cncc(C)n1`: the pKa was determined as 2.11.
Regarding `CCCSC(=O)CCCc1c[nH]cn1`, the pKa came to 7.55.
On the same count and under the same terms, for `CNc1ccccc1` the value was 4.8; for `NCCC(=O)[O-]`, 10.2; for `CN(CCO)CCO`, 8.51.
On the same count and under the same terms, for `CN(C)CC#N` the value was 4.5.
Molecule `CN` showed a pKa of 10.8.
Same read-out and setting: for `Cc1c[nH+]c(C)cn1` the value was -4.42.
Still for that read-out and setting: with `CCCCCc1cccnn1` the figure was 3.7.
Take `CCCCCCCCCCCCCCN(CC(O)CC)CC(O)CC` (centres undefined): the pKa worked out at 5.7.
Molecule `Cc1cc2ncn([C@H]3OC[C@@H](O)[C@@H](O)[C@@H]3O)c2cc1C` gave a pKa of 4.58.
`NC(=S)C[NH3+]` displayed a pKa of -8.39.
Same read-out and setting: for `C1CCC2NCCCC2C1` (centres undefined) the value was 10.9.
The same measure, in the same setting: with `C#CC(C)(C)Nc1ccccc1` the figure was 4.26.
Same read-out and setting: for `Cc1cc(N)nc2ccc3ccccc3c12` the value was 7.14.
In turn, `CCN(C)CCOCC[NH+](CC)CC` came in with a pKa of 8.46.
Same read-out and setting: with `[O-]c1nccc2nccnc12` the figure was 11.1.
On the same count and under the same terms, with `O=Cc1cc(-c2ccccc2)nnc1NCCN1CCOCC1` the figure was 6.89; with `CCCCn1ccnc1`, 7.14.
As for `CC(=O)n1ccnc1C`, the pKa was determined as 5.03.
On the same count and under the same terms, with `c1ccc(-c2ccc3ncc(C[NH+]4CCOCC4)n3n2)cc1` the figure was 2.91.
Molecule `CCN(CC)Cc1cn2nc(-c3ccccc3)cc(C)c2n1` registered a pKa of 8.79.
On the same count and under the same terms, with `CNC(C)(C)C(=O)[O-]` the figure was 10.8; with `C#CCN(C)C`, 7.05.
For the molecule `C=CC(C)Nc1ccccc1` (centres undefined), the pKa came out at 4.57.
Still for that read-out and setting: for `CS(=O)C(C)(C)C` (centres undefined) the value was -1.71; for `Cc1cccc(N)c1C`, 4.56; for `CCOc1ccc2ccc(OCC)c(N3CCOCC3)c2c1N1CCOCC1`, 12.5.
On to `CN(C)c1ccc(SC#N)cc1`, for which the pKa stood at 3.3.
Consider `CC(C)NCCN`, for which the pKa amounted to 10.6.
Molecule `OCCCc1cccnc1` gave a pKa of 5.57.
On the same count and under the same terms, for `CC1[C@H](N)[C@H]1N` (some centres undefined) the value was 8.98.
As for `C=CCN(C)CCCNC(=O)/C=N/[O-]`, the pKa worked out at 9.5.
Molecule `CC[NH+](CC)CCCC(C)Nc1cc(OC)cc2ccc[nH+]c12` (centres undefined) came in with a pKa of -1.33.
Consider `O=C([O-])c1cccc2cc3ccccc3nc12`, for which the pKa came out at 7.72.
On the same count and under the same terms, for `CCOC(=O)C1(c2ccccc2)CCN(C)CC1` the value was 8.6.
`COc1ccccc1/C(=N/CCC[NH+](C)C)c1ccccc1` displayed a pKa of 4.62.
Same read-out and setting: for `CC(C)(C)/C(N)=N/O` the value was 5.8.
On the same count and under the same terms, for `CN(C)CCCCCCCCCNC(=O)/C=N/[O-]` the value was 10.5; for `CN1CCN(C)c2cccc3cccc1c23`, 4.62; for `CC[NH+](CC)CCCCCCCC(C)Nc1c2ccc(Cl)cc2nc2ccc(OC)cc12` (centres undefined), 8.
Still for that read-out and setting: for `C1CCC(NC2CCCCO2)OC1` (centres undefined) the value was 8.1.
As to `NCC(=O)O`, the pKa came out at 9.67.
Turning to `CCC(=O)c1ccccc1`, the pKa worked out at 17.6.
On the same count and under the same terms, for `O=C([O-])[C@@H]1C[C@@H](O)CN1` the value was 9.64; for `CCn1c(=O)n(C)c2ccccc21`, -3.7; for `CCCCCC/N=C/c1c(C)cnc(C)c1O`, 6.22.
As for `C=CC(C)(C)NC(C)(C)CC`, the pKa was 10.8.
On the same count and under the same terms, for `c1ccc(-c2ccn[nH]2)[nH+]c1` the value was -1.1.
On the same count and under the same terms, with `O=C(CCN1CCOCC1)C(c1ccccc1)c1ccccc1` the figure was 6.39; with `O=C(O)c1cccc[nH+]1`, -0.84.
As to `Nc1cccc2ncccc12`, the pKa amounted to 5.46.
`[S-]c1ncnc2nccnc12`: the pKa was 6.81.
On the same count and under the same terms, for `Cc1cc(C)nc(NS(=O)(=O)c2ccc(N)cc2)n1` the value was 2.35.
Turning to `Cc1ccc(C)nc1`, the pKa came to 6.4.
Still for that read-out and setting: with `CN(C)CCCO` the figure was 9.76.

Source of the values: the pKa sets of Baltruschat and Czodrowski (2020).
